From ChEMBL document CHEMBL5131540, “Optimizing Shape Complementarity Enables the Discovery of Potent Tricyclic BCL6 Inhibitors” (J Med Chem, 2022)
Converted amounts (≈) assume the structure as drawn.

Columns and labels:
in vitro = conditions: PAMPA, pH 7.4
Description: Permeability of the compound at pH 7.4 by PAMPA

[1] = Kinetic aqueous solubility of the compound in 4% DMSO/HEPES buffer at pH 8 incubated for 20 hrs by NMR analysis; type: physicochemical; conditions: read-out: Kinetic_solubility

Row | Structure (SMILES) | Papp (in vitro) [×10⁻⁶ cm/s] | solubility kinetic at 20 h [1] [µM]
1 | CCNc1cc(=O)[nH]c2ccc(Nc3ccnc(Cl)c3C#N)cc12 | < 0.1 | 
2 | C[C@@H]1CCOc2c(c3cc(Nc4ccnc(Cl)c4C#N)ccc3n(C)c2=O)N1 |  | 190 (≈ 75.2 µg/mL)
